Values joined by “and” are separate entries in the source; they are usually repeats but may differ in a detail not shown here. Equal values may be shown once.
Assays:
[1] = tested on: RAW 264.7 macrophages; test: SAFIRE macrophage assay: host toxicity (adherent macrophage count, morphology); type: cell-based
Source text: (§1) In SAFIRE, we used MATLAB software to count the number of macrophages that remain adherent and retain the red fluorescence of MitoTracker, an indicator of voltage across the mitochondrial inner membrane. MATLAB then calculates the signal from bacteria (green fluorescent protein [GFP]) that overlaps with macrophages, as defined by MitoTracker, to estimate bacterial load. […] For example, we observed that the 6-trifluoropyrimidin-2-yl group on the right-hand side of EPM35 is apparently toxic to macrophages. Non-toxic analogs that reduced bacterial load by at least 60% at 5 µM and 25 µM in SAFIRE, as compared with DMSO, progressed and were evaluated in SAFIRE across eight or more concentrations, ranging from 0.001 µM to 50 µM (n = 2). […] Each of the top 13 analogs had at least an eightfold increase in potency and were not toxic for macrophages at 50 µM in the SAFIRE assay (Fig. 1C).
(§2) As previously described ([18]), RAW 264.7 macrophages (between passages 1 and 6) were grown in complete Dulbecco’s modified Eagle’s medium (DMEM) to approximately 70% to 90% confluence, scraped, washed, resuspended, diluted to 5 × 10^4 in 100 µL, and seeded in black, 96-well, glass-bottomed plates (Brooks Life Sciences catalog number MGB096-1-2-LG-L) at 37°C with 5% CO2. Twenty-four hours later, bacteria grown overnight in LB were diluted into 50 µL phosphate buffered saline (PBS) and added to a final concentration of 1 × 10^7 S. Typhimurium SL1344 (sifB::gfp) per milliliter ([78]) for an approximate multiplicity of infection of 30 bacteria per macrophage cell. Forty-five minutes after bacterial addition, gentamicin (Sigma catalog number G1264) was added to a final concentration of 40 µg/mL to inhibit the growth of remaining extracellular bacteria. Two hours after infection, gentamicin-containing medium was removed and replaced with 200 µL fresh DMEM with compound or DMSO (Sigma catalog number 276855) to the stated final concentrations. At 17.5 h after infection, PBS containing MitoTracker Red CMXRos (Life Technologies catalog number M7512), a vital dye for mitochondrial electric potential, was added to a final concentration of 100 nM. At 18 h after infection, 16% paraformaldehyde was added to a final concentration of 4% and incubated at room temperature for 15 min. Cells were washed twice with PBS and stained for 20 min with 1 µM 4′,6-diamidino-2-phenylindole (DAPI), a vital dye for double-stranded DNA, and stored in 90% glycerol in PBS until imaging. Samples were imaged in six fields of view per well using a semiautomated Yokogawa CellVoyager CV1000 confocal scanner system with a 20×, 0.75-numerical aperture (NA) objective. A MATLAB algorithm calculated bacterial accumulation (GFP fluorescence) within macrophages, as defined by DAPI and MitoTracker Red. GFP^+ macrophage area was defined as the number of GFP-positive pixels per macrophage divided by the total number of pixels per macrophage, averaged across all macrophages in the field ([34]).

[2] = tested on: S. Typhimurium SL1344 (sifB::gfp) in RAW 264.7 macrophages; test: SAFIRE macrophage assay: intracellular bacterial load (GFP signal within macrophages); type: cell-based, Salmonella enterica serotype Typhimurium
Source text: as §1, §2

[3] = 5 uM, 'Toxic' given instead of a score
[4] = 25 uM, 'Toxic' given instead of a score

SMILES	5 uM Avg Cell # Score ([1]; 5 uM)	25 uM Avg Cell # Score ([1]; 25 uM)	5 uM Avg Antibacterial Score [2, 3]	25 uM Avg Antibacterial Score [2, 4]	toxicity to infected macrophages in SAFIRE ([1]; 16 h after treatment)	5 uM Avg Cell # Score ([1]; 5 uM compound, n=1, DMSO solvent control = 100)	25 uM Avg Cell # Score ([1]; 25 uM compound, n=1, DMSO solvent control = 100)	5 uM Avg Antibacterial Score ([2]; 5 uM compound, n=1, DMSO solvent control = 98, rifampicin 2 μg/mL = 65)	25 uM Avg Antibacterial Score ([2]; 25 uM compound, n=1, DMSO solvent control = 98, rifampicin 2 μg/mL = 65)
OC(COc1ccc(Cl)c(Cl)c1)CN1CCC(F)(F)C1 (stereo not shown) [CU124]	80	71	102	85	–	–	–	–	–
OC(COc1ccc2cc[nH]c2c1)CN1CCC(Nc2nccc(C(F)(F)F)n2)CC1 (stereo not shown) [CU117]	66	74	3.65	Toxic	–	–	–	–	–
O=C(NC1CCN(CC(O)COc2ccc(Cl)c(Cl)c2)C1)c1ccccc1 (stereo not shown) [CU068]	80	49	20	Toxic	–	–	–	–	–
OC(COc1ccccc1Cl)CN1CCC(Nc2nccc(C(F)(F)F)n2)C1 (stereo not shown) [CU084]	96	46	93	Toxic	–	–	–	–	–
COc1ccc(OCC(O)CN2CCC(Nc3nccc(C(F)(F)F)n3)C2)cc1 (stereo not shown) [CU096]	74	92	103	29	–	–	–	–	–
NC1CCCN(CC(O)COc2ccc(Cl)c(Cl)c2)C1 (stereo not shown) [CU144]	99	105	63	29	–	–	–	–	–
OC(COc1ccc(Cl)c(Cl)c1)CN1CCN(c2nccc(C(F)(F)F)n2)CC1 (stereo not shown) [CU061]	74	101	Toxic	Toxic	–	–	–	–	–
OC(COc1ccc(F)cc1)CN1CCC(Nc2nccc(C(F)(F)F)n2)C1 (stereo not shown) [CU097]	95	95	100	6.44	–	–	–	–	–
OC(CNC1CCNCC1)COc1cc(Cl)cc(Cl)c1 (stereo not shown) [CU202]	100	95	34	11	–	–	–	–	–
COCC1CCCN1CC(O)COc1ccc(Cl)c(Cl)c1 (stereo not shown) [CU128]	85	85	98	32	–	–	–	–	–
COc1ccc(OCC(O)CN2CCC(Nc3nccs3)CC2)cc1 (stereo not shown) [CU054]	98	96	91	74	–	–	–	–	–
O[C@H](COc1ccc(Cl)c(Cl)c1)CN1CCC(Nc2nccc(C(F)(F)F)n2)CC1 [CU137]	91	67	5.37	Toxic	–	–	–	–	–
OC(COc1ccc(Cl)cc1Cl)CN1CCC(Nc2nccc(C(F)(F)F)n2)C1 (stereo not shown) [CU087]	98	78	36	Toxic	–	–	–	–	–
OC(COc1ccc(Cl)c(Cl)c1)CN1CCN(CC2CC2)CC1 (stereo not shown) [CU183]	103	105	92	25	–	–	–	–	–
CNC1CCN(C[C@H](O)COc2ccc(Cl)c(Cl)c2)C1 (stereo partly shown) [CU162]	124	126	68	46	–	–	–	–	–
N#Cc1ccccc1OCC(O)CN1CCC(Nc2nccc(C(F)(F)F)n2)C1 (stereo not shown) [CU093]	93	79	102	58	–	–	–	–	–
Cc1cc(CNCC(O)COc2ccc(Cl)c(Cl)c2)sc1C (stereo not shown) [CU135]	75	103	52	Toxic	–	–	–	–	–
NC1CCN(CC(O)COc2ccc(Cl)c(Cl)c2)CC1 (stereo not shown) [CU173]	98	43	20	30	toxic	–	–	–	–
CO[C@@H]1CCN(CC(O)COc2ccc(Cl)c(Cl)c2)C1 (stereo partly shown) [CU127]	92	85	97	46	–	–	–	–	–
N[C@H]1CC[C@H](N2CC(COc3cc(Cl)cc(Cl)c3)OC2=O)CC1 (stereo partly shown) [CU219]	137	123	93	22	–	–	–	–	–
O[C@@H](COc1ccc(Cl)c(Cl)c1)CN1CCCCC1 [CU253]	–	–	–	–	–	116	120	96	57
OC(COc1ccc(Cl)c(Cl)c1)CN1CCC(NC2CC2)C1 (stereo not shown) [CU028]	85	134	88	41	–	–	–	–	–
OC(COc1ccc(Cl)cc1)CN1CCC(Nc2nccc(C(F)(F)F)n2)C1 (stereo not shown) [CU086]	89	27	71	Toxic	–	–	–	–	–
OC(COc1ccc(Cl)c(Cl)c1)CN1CCOC2(CCOCC2)C1 (stereo not shown) [CU027]	58	104	107	95	–	–	–	–	–
OC(COc1cc(F)cc(Br)c1)CN1CCC(Nc2nccc(C(F)(F)F)n2)CC1 (stereo not shown) [CU119]	72	50	13	Toxic	–	–	–	–	–
NCC1CCN(CC(O)COc2cc(Cl)cc(Cl)c2)CC1 (stereo not shown) [CU208]	167	15	20	Toxic	–	–	–	–	–
OC(CNC1Cc2ccccc2C1)COc1ccc(Cl)c(Cl)c1 (stereo not shown) [CU159]	117	97	102	Toxic	–	–	–	–	–
NC1CCN(CC(O)COc2ccc3ccccc3c2)CC1 (stereo not shown) [CU214]	103	22	28	Toxic	–	–	–	–	–
NC1CN(CC(O)COc2ccc(Cl)c(Cl)c2)C1 (stereo not shown) [CU150]	112 and 118	112 and 143	–	–	–	–	–	–	–

— PMC10746280, “Bacterial efflux pump modulators prevent bacterial growth in macrophages and under broth conditions that mimic the host environment” (mBio, 2023)
